In ChEMBL document CHEMBL1124638, “2,4-Diamino-5-benzylpyrimidines and analogues as antibacterial agents. 10. 2,4-Diamino-5-(6-quinolylmethyl)- and -[(tetrahydro-6-quinolyl)methyl]pyrimidine derivatives. Further specificity studies” (J Med Chem, 1989):
In brackets after ≈: the same amount, converted by molar mass.

How the values were obtained:
[1] = tested on: Bordetella bronchiseptica; assay: Comparative in vitro antibacterial activity with trimethoprim against Bordetella bronchiseptica CN385; type: functional
[2] = tested on: Citrobacter freundii; assay: Comparative in vitro antibacterial activity with trimethoprim against Citrobacter freundii 2200/77; type: functional
[3] = target: T1, Dihydrofolate reductase (Rattus norvegicus, UniProt Q920D2); assay: Inhibitory activity against dihydrofolate reductase in rat liver; conditions: read-out: I50
T1 sequence (Q920D2 whole entry): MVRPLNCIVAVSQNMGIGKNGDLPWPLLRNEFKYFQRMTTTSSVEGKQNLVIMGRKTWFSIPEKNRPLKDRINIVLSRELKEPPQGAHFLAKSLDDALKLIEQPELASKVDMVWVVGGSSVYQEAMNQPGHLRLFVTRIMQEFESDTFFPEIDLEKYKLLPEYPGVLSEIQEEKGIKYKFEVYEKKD

[4] = tested on: Escherichia coli; assay: Comparative in vitro antibacterial activity with trimethoprim against Escherichia coli CN314; type: functional
[5] = tested on: Klebsiella aerogenes; assay: Comparative in vitro antibacterial activity with trimethoprim against Enterobacter aerogenes 2200/86; type: functional
[6] = tested on: Mycolicibacterium smegmatis; assay: Comparative in vitro antibacterial activity with trimethoprim against Mycobacterium smegmatis S 3254; type: functional
[7] = tested on: Proteus mirabilis; assay: Comparative in vitro antibacterial activity with trimethoprim against Proteus mirabilis S2409; type: functional
[8] = tested on: Proteus vulgaris; assay: Comparative in vitro antibacterial activity with trimethoprim against Proteus vulgaris CN329; type: functional
[9] = Comparative in vitro antibacterial activity with trimethoprim against Salmonella typhi CN512; type: functional, salmonella typhosa
[10] = tested on: Shigella flexneri; assay: Comparative in vitro antibacterial activity with trimethoprim against Shigella flexneri CN6007; type: functional
[11] = tested on: Serratia marcescens; assay: Comparative in vitro antibacterial activity with trimethoprim against Serratia marcescens CN2398; type: functional
[12] = tested on: Salmonella typhimurium; assay: Comparative in vitro antibacterial activity with trimethoprim against Salmonella Typhimurium S 8587; type: functional, Salmonella enterica subsp. enterica serovar Typhimurium; conditions: Salmonella enterica
[13] = tested on: Streptococcus pyogenes; assay: Comparative in vitro antibacterial activity of compound with trimethoprim against Streptococcus pyogenes CN10; type: functional
[14] = tested on: Staphylococcus aureus; assay: Comparative in vitro antibacterial activity with trimethoprim against Staphylococcus aureus CN491; type: functional
[15] = tested on: Enterococcus faecalis; assay: Comparative in vitro antibacterial activity with trimethoprim against Streptococcus faecalis CN478; type: functional
[16] = tested on: Streptococcus agalactiae; assay: Comparative in vitro antibacterial activity with trimethoprim against Streptococcus agalactiae CN1143; type: functional
[17] = tested on: Vibrio cholerae; assay: Comparative in vitro antibacterial activity with trimethoprim against Vibrio cholerae ATCC 14035; type: functional
[18] = tested on: Pasteurella multocida; assay: Comparative in vitro antibacterial activity with trimethoprim against Pasteurella multocida ATCC 6587; type: functional
[19] = tested on: Klebsiella pneumoniae; assay: Comparative in vitro antibacterial activity with trimethoprim against Klebsiella pneumoniae CN3632; type: functional

## COc1cc(Cc2cnc(N)nc2N)cc2cccnc12
[1]
  MIC: 30 µg/mL (≈ 107 µM)
[2]
  MIC: 10 µg/mL (≈ 35.5 µM)
[3]
  IC50: 12 µM
[4]
  MIC: 3 µg/mL (≈ 10.7 µM)
[5]
  MIC: 3 µg/mL (≈ 10.7 µM)
[6]
  MIC: 1 µg/mL (≈ 3.55 µM)
[7]
  MIC: 3 µg/mL (≈ 10.7 µM)
[8]
  MIC: 3 µg/mL (≈ 10.7 µM)
[9]
  MIC: 3 µg/mL (≈ 10.7 µM)
[10]
  MIC: 3 µg/mL (≈ 10.7 µM)
[11]
  MIC: 1 µg/mL (≈ 3.55 µM)
[12]
  MIC: 3 µg/mL (≈ 10.7 µM)
[13]
  MIC: 3 µg/mL (≈ 10.7 µM)
[14]
  MIC: 3 µg/mL (≈ 10.7 µM)
[15]
  MIC: 3 µg/mL (≈ 10.7 µM)
[16]
  MIC: 3 µg/mL (≈ 10.7 µM)
[17]
  MIC: 1 µg/mL (≈ 3.55 µM)
[18]
  MIC: 3 µg/mL (≈ 10.7 µM)
[19]
  MIC: 3 µg/mL (≈ 10.7 µM)

## COc1cc(Cc2cnc(N)nc2N)cc2c(C)ccnc12
[1]
  MIC: 3 µg/mL (≈ 10.2 µM)
[2]
  MIC: 3 µg/mL (≈ 10.2 µM)
[4]
  MIC: 1 µg/mL (≈ 3.39 µM)
[5]
  MIC: 1 µg/mL (≈ 3.39 µM)
[6]
  MIC: 0.3 µg/mL (≈ 1.02 µM)
[7]
  MIC: 1 µg/mL (≈ 3.39 µM)
[8]
  MIC: 1 µg/mL (≈ 3.39 µM)
[9]
  MIC: 1 µg/mL (≈ 3.39 µM)
[10]
  MIC: 1 µg/mL (≈ 3.39 µM)
[11]
  MIC: 1 µg/mL (≈ 3.39 µM)
[12]
  MIC: 3 µg/mL (≈ 10.2 µM)
[13]
  MIC: 1 µg/mL (≈ 3.39 µM)
[14]
  MIC: 0.3 µg/mL (≈ 1.02 µM)
[15]
  MIC: 1 µg/mL (≈ 3.39 µM)
[16]
  MIC: 1 µg/mL (≈ 3.39 µM)
[17]
  MIC: 0.3 µg/mL (≈ 1.02 µM)
[18]
  MIC: 1 µg/mL (≈ 3.39 µM)
[19]
  MIC: 1 µg/mL (≈ 3.39 µM)

## Cc1ccnc2ccc(Cc3cnc(N)nc3N)c(N)c12
[1]
  MIC: > 100 µg/mL
[2]
  MIC: 100 µg/mL (≈ 357 µM)
[3]
  IC50: 15 µM
[4]
  MIC: 100 µg/mL (≈ 357 µM)
[5]
  MIC: 300 µg/mL (≈ 1070 µM)
[6]
  MIC: 100 µg/mL (≈ 357 µM)
[7]
  MIC: 30 µg/mL (≈ 107 µM)
[8]
  MIC: > 100 µg/mL
[9]
  MIC: 100 µg/mL (≈ 357 µM)
[10]
  MIC: 100 µg/mL (≈ 357 µM)
[11]
  MIC: > 10 µg/mL
[12]
  MIC: 100 µg/mL (≈ 357 µM)
[13]
  MIC: 30 µg/mL (≈ 107 µM)
[14]
  MIC: 30 µg/mL (≈ 107 µM)
[15]
  MIC: 10 µg/mL (≈ 35.7 µM)
[16]
  MIC: 100 µg/mL (≈ 357 µM)
[17]
  MIC: 100 µg/mL (≈ 357 µM)
[18]
  MIC: 300 µg/mL (≈ 1070 µM)
[19]
  MIC: 100 µg/mL (≈ 357 µM)

## Nc1ncc(Cc2ccc3ncccc3c2)c(N)n1
[1]
  MIC: 10 µg/mL (≈ 39.8 µM)
[2]
  MIC: 10 µg/mL (≈ 39.8 µM)
[3]
  IC50: 18 µM
[4]
  MIC: 3 µg/mL (≈ 11.9 µM)
[5]
  MIC: 3 µg/mL (≈ 11.9 µM)
[6]
  MIC: 0.3 µg/mL (≈ 1.19 µM)
[7]
  MIC: 3 µg/mL (≈ 11.9 µM)
[8]
  MIC: 10 µg/mL (≈ 39.8 µM)
[9]
  MIC: 10 µg/mL (≈ 39.8 µM)
[10]
  MIC: 10 µg/mL (≈ 39.8 µM)
[11]
  MIC: 3 µg/mL (≈ 11.9 µM)
[12]
  MIC: 10 µg/mL (≈ 39.8 µM)
[13]
  MIC: 3 µg/mL (≈ 11.9 µM)
[14]
  MIC: 30 µg/mL (≈ 119 µM)
[15]
  MIC: 3 µg/mL (≈ 11.9 µM)
[16]
  MIC: 3 µg/mL (≈ 11.9 µM)
[17]
  MIC: 3 µg/mL (≈ 11.9 µM)
[18]
  MIC: 10 µg/mL (≈ 39.8 µM)
[19]
  MIC: 3 µg/mL (≈ 11.9 µM)

## CCOC(=O)C1CNc2c(cc(Cc3cnc(N)nc3N)cc2OC)C1 (stereo not drawn)
[1]
  MIC: > 100 µg/mL
[2]
  MIC: 10 µg/mL (≈ 28 µM)
[3]
  IC50: 44 µM
[4]
  MIC: 30 µg/mL (≈ 83.9 µM)
[5]
  MIC: 10 µg/mL (≈ 28 µM)
[6]
  MIC: 30 µg/mL (≈ 83.9 µM)
[7]
  MIC: > 30 µg/mL
[8]
  MIC: > 100 µg/mL
[9]
  MIC: 100 µg/mL (≈ 280 µM)
[10]
  MIC: 10 µg/mL (≈ 28 µM)
[11]
  MIC: > 10 µg/mL
[12]
  MIC: 30 µg/mL (≈ 83.9 µM)
[13]
  MIC: 3 µg/mL (≈ 8.39 µM)
[14]
  MIC: 30 µg/mL (≈ 83.9 µM)
[15]
  MIC: 30 µg/mL (≈ 83.9 µM)
[16]
  MIC: 10 µg/mL (≈ 28 µM)
[17]
  MIC: 30 µg/mL (≈ 83.9 µM)
[18]
  MIC: 30 µg/mL (≈ 83.9 µM)
[19]
  MIC: 100 µg/mL (≈ 280 µM)

## COc1cc(Cc2cnc(N)nc2N)cc2c1NCCC2C (stereo not drawn)
[1]
  MIC: 10 µg/mL (≈ 33.4 µM)
[2]
  MIC: 10 µg/mL (≈ 33.4 µM)
[4]
  MIC: 3 µg/mL (≈ 10 µM)
[5]
  MIC: 3 µg/mL (≈ 10 µM)
[6]
  MIC: 1 µg/mL (≈ 3.34 µM)
[7]
  MIC: 3 µg/mL (≈ 10 µM)
[8]
  MIC: 10 µg/mL (≈ 33.4 µM)
[9]
  MIC: 10 µg/mL (≈ 33.4 µM)
[10]
  MIC: 10 µg/mL (≈ 33.4 µM)
[11]
  MIC: 3 µg/mL (≈ 10 µM)
[12]
  MIC: 10 µg/mL (≈ 33.4 µM)
[13]
  MIC: 1 µg/mL (≈ 3.34 µM)
[14]
  MIC: 1 µg/mL (≈ 3.34 µM)
[15]
  MIC: 1 µg/mL (≈ 3.34 µM)
[16]
  MIC: 1 µg/mL (≈ 3.34 µM)
[17]
  MIC: 1 µg/mL (≈ 3.34 µM)
[18]
  MIC: 3 µg/mL (≈ 10 µM)
[19]
  MIC: 3 µg/mL (≈ 10 µM)

## Cc1ccnc2c(N)cc(Cc3cnc(N)nc3N)cc12
[1]
  MIC: 30 µg/mL (≈ 107 µM)
[2]
  MIC: 10 µg/mL (≈ 35.7 µM)
[3]
  IC50: 32 µM
[4]
  MIC: 10 µg/mL (≈ 35.7 µM)
[5]
  MIC: 10 µg/mL (≈ 35.7 µM)
[6]
  MIC: 10 µg/mL (≈ 35.7 µM)
[7]
  MIC: 1 µg/mL (≈ 3.57 µM)
[8]
  MIC: 3 µg/mL (≈ 10.7 µM)
[9]
  MIC: 10 µg/mL (≈ 35.7 µM)
[10]
  MIC: 30 µg/mL (≈ 107 µM)
[11]
  MIC: 30 µg/mL (≈ 107 µM)
[12]
  MIC: 30 µg/mL (≈ 107 µM)
[14]
  MIC: 3 µg/mL (≈ 10.7 µM)
[15]
  MIC: 3 µg/mL (≈ 10.7 µM)
[16]
  MIC: 10 µg/mL (≈ 35.7 µM)
[17]
  MIC: 3 µg/mL (≈ 10.7 µM)
[18]
  MIC: 10 µg/mL (≈ 35.7 µM)
[19]
  MIC: 10 µg/mL (≈ 35.7 µM)

## Nc1ncc(Cc2ccc3c(c2)CCCN3)c(N)n1
[1]
  MIC: 10 µg/mL (≈ 39.2 µM)
[2]
  MIC: 10 µg/mL (≈ 39.2 µM)
[3]
  IC50: 140 µM
[4]
  MIC: 30 µg/mL (≈ 117 µM)
[5]
  MIC: 10 µg/mL (≈ 39.2 µM)
[6]
  MIC: 3 µg/mL (≈ 11.7 µM)
[7]
  MIC: 10 µg/mL (≈ 39.2 µM)
[8]
  MIC: 10 µg/mL (≈ 39.2 µM)
[9]
  MIC: 10 µg/mL (≈ 39.2 µM)
[10]
  MIC: 30 µg/mL (≈ 117 µM)
[11]
  MIC: 10 µg/mL (≈ 39.2 µM)
[12]
  MIC: 10 µg/mL (≈ 39.2 µM)
[13]
  MIC: 10 µg/mL (≈ 39.2 µM)
[14]
  MIC: 30 µg/mL (≈ 117 µM)
[15]
  MIC: 10 µg/mL (≈ 39.2 µM)
[16]
  MIC: 10 µg/mL (≈ 39.2 µM)
[17]
  MIC: 10 µg/mL (≈ 39.2 µM)
[18]
  MIC: 10 µg/mL (≈ 39.2 µM)
[19]
  MIC: 10 µg/mL (≈ 39.2 µM)

## Cc1ccnc2ccc(Cc3cnc(N)nc3N)cc12
[1]
  MIC: 1 µg/mL (≈ 3.77 µM)
[2]
  MIC: 3 µg/mL (≈ 11.3 µM)
[3]
  IC50: 22 µM
[4]
  MIC: 3 µg/mL (≈ 11.3 µM)
[5]
  MIC: 3 µg/mL (≈ 11.3 µM)
[6]
  MIC: 1 µg/mL (≈ 3.77 µM)
[7]
  MIC: 1 µg/mL (≈ 3.77 µM)
[8]
  MIC: 1 µg/mL (≈ 3.77 µM)
[9]
  MIC: 1 µg/mL (≈ 3.77 µM)
[10]
  MIC: 3 µg/mL (≈ 11.3 µM)
[11]
  MIC: 1 µg/mL (≈ 3.77 µM)
[12]
  MIC: 3 µg/mL (≈ 11.3 µM)
[13]
  MIC: 3 µg/mL (≈ 11.3 µM)
[14]
  MIC: 1 µg/mL (≈ 3.77 µM)
[15]
  MIC: 1 µg/mL (≈ 3.77 µM)
[16]
  MIC: 1 µg/mL (≈ 3.77 µM)
[17]
  MIC: 1 µg/mL (≈ 3.77 µM)
[18]
  MIC: 1 µg/mL (≈ 3.77 µM)
[19]
  MIC: 1 µg/mL (≈ 3.77 µM)
